pEC50, pIC50: −log10 of the molar value. Where two headings read alike, the source gives them in different places.
How the values were obtained:
[1] = molecular target: T1, HCV NS5B polymerase (His-tagged, C-terminal 21 amino acid deleted NS5B, HC-J4) (Hepatitis C virus genotype 1b, UniProt O92972); assay: NS5b polymerase assay (biochemical RdRp assay, 3H-GTP incorporation, SPA beads); design: species or system HCV genotype 1b; details: for IC50: NS5B Polymerase Assay IC50 (μM); for pIC50: 3H-GTP incorporation, 2 h at 25° C.
T1 construct: The cDNA encoding NS5B amino acid 1-570 (HC-J4, genotype 1b); His tag (His6, from pET-21b) (C); made in house; host or cells: E. coli BL21 (DE3)
How it was run: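 His-tagged C-terminal-21-aa-deleted NS5B (genotype 1b, HC-J4) at 200 nM was preincubated 15 min at RT with compound on 5′-biotinylated oligo(rG13)/poly(rC) template/primer before NTPs. Reaction with 600 nM GTP plus 0.1 μCi 3H-GTP and 5 mM MgCl2 in Tris pH 7.5 ran 2 h at 25 °C. Stopped with EDTA/SPA beads for incorporation counting.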

[2] = tested on: HCV replicon RNA replication in Huh-7 luc/neo (Huh-Luc) cells; assay: HCV replicon assay (stable replicon cell reporter assay, luciferase read-out); assay type: cell-based, HCV type 1b; details: for EC50: read-out: Replicon Assay EC50 (μM), Huh-Luc cells, incubation of three days, luciferase activity
How it was run: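 Huh-7 cells stably carry a bicistronic HCV 1b NS3-NS5B subgenomic replicon with firefly luciferase and neo markers. Cells were plated with compound across a concentration range and incubated three days. Replication was measured as luciferase activity to give dose-response curves.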

[3] = NS5B Polymerase Assay IC50, 200 nM enzyme
[4] = Hepatitis C virus, Huh-7, 72 h, read-out: Replicon Assay EC50, Huh-Luc cells, three days incubation, luciferase activity
[5] = 200 nM enzyme, read-out: NS5B Polymerase Assay IC50
[6] = Huh-Luc cells, three days incubation, luciferase activity, read-out: Replicon Assay EC50
[7] = read-out: NS5B Polymerase Assay IC50, 200 nM enzyme
[8] = read-out: Replicon Assay EC50, Huh-Luc cells, three days incubation, luciferase activity

T1 sequence (O92972 2417-3000, looked up, stated change not applied): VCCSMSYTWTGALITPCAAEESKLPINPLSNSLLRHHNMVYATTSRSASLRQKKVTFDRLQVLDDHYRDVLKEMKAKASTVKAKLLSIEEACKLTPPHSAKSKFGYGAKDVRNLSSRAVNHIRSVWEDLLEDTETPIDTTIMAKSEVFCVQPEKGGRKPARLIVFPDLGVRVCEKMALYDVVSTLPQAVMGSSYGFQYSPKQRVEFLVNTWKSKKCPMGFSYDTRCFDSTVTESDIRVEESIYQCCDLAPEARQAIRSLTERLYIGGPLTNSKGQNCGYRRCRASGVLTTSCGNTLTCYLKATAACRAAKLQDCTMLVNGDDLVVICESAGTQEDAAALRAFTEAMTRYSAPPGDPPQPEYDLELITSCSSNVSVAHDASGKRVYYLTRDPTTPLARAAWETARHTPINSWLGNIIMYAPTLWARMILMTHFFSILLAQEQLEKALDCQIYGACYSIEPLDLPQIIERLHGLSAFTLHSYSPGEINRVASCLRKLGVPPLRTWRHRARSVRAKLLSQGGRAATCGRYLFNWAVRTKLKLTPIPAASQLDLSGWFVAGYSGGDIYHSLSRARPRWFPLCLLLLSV

| SMILES | IC50 [1] [µM] | EC50 ([2]; Hepatitis C virus, Huh-7, 72 h) [µM] | pIC50 [1, 3] | pEC50 [2, 4] | further results |
| --- | --- | --- | --- | --- | --- |
| O=C1CC(c2ccccc2OCc2ccccc2)CC2=C1C(c1ccc(Cl)cc1Cl)Nc1ccccc1N2 (single isomer, unassigned) [compound 419, 3-(2-Benzyloxyphenyl)-11-(2,4-dichlorophenyl)-2,3,4,5,10,11-hexahydro-dibenzo[b,e][1,4]diazepin-1-one] | > 42.7 | 4.82 | – | – | – |
| COc1ccc(C2C3=C(CC(C)(C)CC3=O)Nc3ccccc3N2C(=O)C(F)(F)F)c(OC)c1 (stereo not drawn) [compound 58] | – | – | < 4.37 | 5.06 | – |
| CC(=O)N1c2ccccc2NC2=C(C(=O)CC(C)(C)C2)C1c1ccc(-c2ccc([N+](=O)[O-])cc2Cl)o1 (stereo not drawn) [compound 279] | – | – | < 4.37 | 5.03 | – |
| CC(=O)N1c2cccc(Br)c2NC2=C(C(=O)CC(C)(C)C2)C1c1ccc(Cl)cc1Cl (stereo not drawn) [compound 312] | – | – | 5.21 | 5.11 | – |
| CC(=O)N1c2ccccc2NC2=C(C(=O)CC(C)(C)C2)C1c1ccc(F)cc1 (stereo not drawn) [compound 4] | – | – | < 4.37 | < 4.49 | – |
| CC1(C)CC(=O)C2=C(C1)Nc1ccccc1N(C(=O)C1CC1)C2c1ccc(Cl)cc1Cl (stereo not drawn) [compound 53] | – | – | 4.71 | < 4.49 | – |
| CCC(=O)N1c2ccccc2NC2=C(C(=O)CC(C)(C)C2)C1c1ccc(Br)s1 (stereo not drawn) [compound 249] | – | – | < 4.37 | 5.44 | – |
| CCC(=O)N1c2ccccc2NC2=C(C(=O)CC(C)(C)C2)C1c1ccc(C(F)(F)F)cc1 (stereo not drawn) [compound 55] | – | – | 4.48 | < 4.49 | – |
| Cc1ccc(C2CC(=O)C3=C(C2)Nc2ccccc2NC3c2ccc(C)cc2)cc1 (stereo not drawn) [compound 408] | > 33.3 | 14.2 | – | – | – |
| O=C1CC(c2ccccc2)CC2=C1C(c1ccc(Cl)cc1)Nc1ccccc1N2 (stereo not drawn) [compound 325] | > 42.6 | 16.3 | – | – | – |
| O=C1CC(c2ccc(Cl)cc2)CC2=C1C(c1cccc([N+](=O)[O-])c1)N(C(=O)C(F)(F)F)c1ccccc1N2 (mixture of isomers) [compound 202] | – | – | – | – | pIC50 [1, 5]: < 4.48; pEC50 [2, 6]: 5.01 |
| CC1(C)CC(=O)C2=C(C1)Nc1ccccc1N(C(=O)c1ccccc1F)C2c1ccccc1OCc1ccccc1 (stereo not drawn) [compound 27] | – | – | < 4.37 | 4.68 | – |
| CC1(C)CC(=O)C2=C(C1)Nc1ccccc1N(C(=O)C(F)(F)F)C2c1ccc(Cl)cc1 (stereo not drawn) [compound 56] | – | – | < 4.37 | 4.60 | – |
| COC(=O)CN1c2ccccc2NC2=C(C(=O)CC(C)(C)C2)C1c1ccc(Cl)cc1Cl (stereo not drawn) [compound 510] | > 133 | 4.56 | – | – | – |
| COc1ccc(C2CC(=O)C3=C(C2)Nc2ccccc2NC3c2cc(Br)ccc2OC)cc1OC (stereo not drawn) [compound 404] | > 42.7 | 3.24 | – | – | – |
| COc1ccc(C2CC(=O)C3=C(C2)Nc2ccccc2N(C(C)=O)C3c2ccc(Cl)cc2)cc1 (stereo not drawn) [compound 165] | – | – | – | – | pIC50 [1, 5]: < 4.48; pEC50 [2, 6]: 4.73 |
| CCCCCC(=O)N1c2ccccc2NC2=C(C(=O)CC(c3ccc(OC)cc3)C2)C1c1ccc(Cl)cc1 (stereo not drawn) [compound 232] | – | – | – | – | pIC50 [1, 5]: < 4.48; pEC50 [2, 6]: 4.65 |
| CC1(C)CC(=O)C2=C(C1)Nc1ccccc1NC2c1cccc(Cl)c1Cl (stereo not drawn) [compound 427] | > 42.7 | 20.7 | – | – | – |
| COc1cccc(C2Nc3ccccc3NC3=C2C(=O)CC(c2ccccc2)C3)c1OC (stereo not drawn) [compound 347] | > 42.7 | 20.7 | – | – | – |
| CCCCOc1ccc(C2C3=C(CC(C)(C)CC3=O)Nc3ccccc3N2C(=O)c2ccccc2)cc1 (stereo not drawn) [compound 91] | – | – | < 4.37 | 5.09 | – |
| CC(=O)N1c2ccccc2NC2=C(C(=O)CC(C)(C)C2)[C@H]1c1ccc(OCc2ccccc2)cc1Cl (single isomer, unassigned) [compound 305] | – | – | 7.46 | 5.11 | – |
| CC1(C)CC(=O)C2=C(C1)Nc1ccccc1N(C(=O)c1ccc(Br)cc1)C2c1ccco1 (stereo not drawn) [compound 254] | – | – | < 4.37 | 4.82 | – |
| O=C1CC(c2ccccc2)CC2=C1C(c1ccccc1Br)Nc1ccccc1N2 (stereo not drawn) [compound 345] | > 42.7 | 21 | – | – | – |
| CC1(C)CC(=O)C2=C(C1)Nc1ccccc1N(C(=O)c1ccccc1)C2/C=C/c1ccccc1 (stereo not drawn) [compound 264] | – | – | – | – | pIC50 [1, 5]: < 4.37; pEC50 [2, 6]: 5.05 |

| SMILES | IC50 [1] [µM] | EC50 ([2]; Hepatitis C virus, Huh-7, 72 h) [µM] | pIC50 [1, 3] | pEC50 [2, 4] | further results |
| --- | --- | --- | --- | --- | --- |
| COc1ccc(C2C3=C(CC(C)(C)CC3=O)Nc3ccccc3N2C(C)=O)cc1OCc1ccccc1 (stereo not drawn) [compound 48] | – | – | – | – | pIC50 [1, 5]: 4.80; pEC50 [2, 6]: 4.78 |
| CN1c2ccccc2NC2=C(C(=O)CC(C)(C)C2)C1c1ccc(Cl)cc1Cl (stereo not drawn) [compound 507, 11-(2,4-Dichlorophenyl)-2,3,4,5,10,11-hexahydro-3,3,10-trimethyl-1H-dibenzo[b,e][1,4]diazepin-1-one] | > 42.7 | 4.63 | – | – | – |
| CC1(C)CC(=O)C2=C(C1)Nc1cc(C(=O)c3ccccc3)ccc1NC2c1ccccc1Cl (stereo not drawn) [compound 463] | > 33.3 | 7.43 | – | – | – |
| CC(=O)N1c2ccccc2NC2=C(C(=O)CCC2)C1c1ccc(Cl)cc1Cl (stereo not drawn) [compound 291, 10-Acetyl-11-(2,4-dichlorophenyl)-2,3,4,5,10,11-hexahydro-1H-dibenzo[b,e][1,4]-diazepin-1-one] | – | – | < 4.37 | < 4.49 | – |
| CC(=O)N1c2ccccc2NC2=C(C(=O)CC(c3ccccc3OCc3ccccc3)C2)C1c1cccc(OC(=O)c2ccc(Cl)cc2)c1 (single isomer, unassigned) [compound 192, 10-Acetyl-3-(2-benzyloxyphenyl)-11-[3-(4-chlorobenzoyloxy)phenyl]-2,3,4,5,10,11-hexahydro-dibenzo[b,e][1,4]diazepin-1-one] | – | – | – | – | pIC50 [1, 7]: < 4.37; pEC50 [2, 8]: 5.31 |
| COc1ccc(C2CC(=O)C3=C(C2)Nc2ccccc2NC3c2cccc(OCc3ccccc3)c2)cc1 (stereo not drawn) [compound 326] | > 33.3 | 4.69 | – | – | – |
| CC1(C)CC(=O)C2=C(C1)Nc1cc(F)c(F)cc1NC2c1ccc(Cl)cc1Cl (stereo not drawn) [compound 466, 7,8-difluoro-11-(2,4-dichlorophenyl)-3,3-dimethyl-2,3,4,5,10,11-hexahydro-1H-dibenzo[b,e][1,4]diazepin-1-one] | 68.1 | 6.81 | – | – | – |
| CCCCOc1ccc(C2CC(=O)C3=C(C2)Nc2ccccc2N(C(=O)c2ccccc2)C3c2ccccc2)cc1 (stereo not drawn) [compound 167] | – | – | – | – | pIC50 [1, 5]: < 4.37; pEC50 [2, 6]: 5.49 |
| COc1ccc(C2CC(=O)C3=C(C2)Nc2ccccc2NC3c2cc(OC)c(OC)cc2Br)cc1 (stereo not drawn) [compound 400] | > 42.7 | 3.28 | – | – | – |
| COc1ccc(C2CC(=O)C3=C(C2)Nc2ccccc2N(C(=O)c2ccccc2)C3c2ccc(C)cc2)cc1OC (stereo not drawn) [compound 170] | – | – | – | – | pIC50 [1, 5]: < 4.37; pEC50 [2, 6]: 5.43 |
| COc1ccc(C2C3=C(CC(C)(C)CC3=O)Nc3ccccc3N2C(=O)Cc2ccc(Cl)cc2)cc1 (stereo not drawn) [compound 12] | – | – | < 4.37 | 5.51 | – |
| CCCCCOc1ccc(C2C3=C(CC(C)(C)CC3=O)Nc3ccccc3N2C(=O)c2ccccc2F)cc1 (stereo not drawn) [compound 67] | – | – | < 4.37 | 5.25 | – |
| CCOc1ccccc1C1C2=C(CC(C)(C)CC2=O)Nc2ccccc2N1C(C)=O (stereo not drawn) [compound 125] | – | – | < 4.37 | < 4.49 | – |
| COc1ccc(C2C3=C(CC(c4ccco4)CC3=O)Nc3ccccc3N2C(C)=O)cc1OC (stereo not drawn) [compound 293] | – | – | < 4.37 | < 4.49 | – |
| CCCCC(=O)N1c2ccccc2NC2=C(C(=O)CC(C)(C)C2)C1c1ccc(Cl)cc1 (stereo not drawn) [compound 7] | – | – | < 4.37 | 5.08 | – |
| O=C1CC(c2ccco2)CC2=C1C(c1ccc(Cl)cc1)Nc1ccccc1N2 (stereo not drawn) [compound 413] | > 33.3 | 12 | – | – | – |
| Cc1ccc(C2CC(=O)C3=C(C2)Nc2ccccc2NC3c2ccccc2)cc1 (stereo not drawn) [compound 414] | > 33.3 | 13.6 | – | – | – |
| CC(=O)N1c2ccccc2NC2=C(C(=O)CC(c3ccccc3OCc3ccccc3)C2)C1c1cccc(OCc2ccccc2)c1 (single isomer, unassigned) [compound 190] | – | – | – | – | pIC50 [1, 7]: < 4.37; pEC50 [2, 8]: 5.96 |
| O=C1CC(c2cccc([N+](=O)[O-])c2)CC2=C1C(c1ccco1)N(C(=O)C(F)(F)F)c1ccccc1N2 (stereo not drawn) [compound 296] | – | – | < 4.37 | 4.74 | – |
| CCC(=O)N1c2ccccc2NC2=C(C(=O)CC(c3ccc(OC)c(OC)c3)C2)C1c1cccc(Cl)c1 (mixture of isomers) [compound 193] | – | – | – | – | pIC50 [1, 5]: < 4.48; pEC50 [2, 6]: 5.23 |
| CC1(C)CC(=O)C2=C(C1)Nc1ccccc1N(C(=O)Cc1ccc(Cl)cc1)C2c1cccs1 (stereo not drawn) [compound 245] | – | – | < 4.37 | 5.46 | – |
| CC1(C)CC(=O)C2=C(C1)Nc1ccccc1N(C(=O)c1ccccc1)C2c1cccs1 (stereo not drawn) [compound 269] | – | – | < 4.48 | 4.71 | – |
| CCCOc1ccccc1C1CC(=O)C2=C(C1)Nc1ccccc1N(C(=O)CC)C2c1ccc(OC)cc1 (stereo not drawn) [compound 220] | – | – | – | – | pIC50 [1, 5]: < 4.37; pEC50 [2, 6]: 5.51 |
| CCCCOc1ccc(C2C3=C(CC(C)(C)CC3=O)Nc3ccccc3N2C(=O)C(F)(F)F)cc1 (stereo not drawn) [compound 115] | – | – | < 4.37 | 4.84 | – |
